Measurements from BindingDB's records for doi:10.1002/cbic.201402673 (University of Groningen, 2015).

The compounds below were run against T1, Thiamine transporter ThiT (Lactococcus lactis subsp. cremoris (strain MG1363), UniProt A2RI47) (assay: Intrinsic-Fluorescence Titration).
T1 sequence (A2RI47 whole entry): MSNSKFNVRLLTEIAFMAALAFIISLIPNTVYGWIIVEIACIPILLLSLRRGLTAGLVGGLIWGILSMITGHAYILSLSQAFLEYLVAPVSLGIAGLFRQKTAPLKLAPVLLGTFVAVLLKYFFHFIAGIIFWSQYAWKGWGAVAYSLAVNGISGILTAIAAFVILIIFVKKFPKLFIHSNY
Description: Purified ThiT was diluted in buffer E to a concentration of ~50 nM in a final volume of 800 µL. The substrates were added in 1 µL steps. Using an excitation wavelength of 280 nm, emission was measured at 350 nm and 25 °C. After each addition of substrate, 10 s were allowed for equilibration and mixing, and the signals were averaged over 15 s.

| SMILES | Kd [nM] |
| --- | --- |
| Cc1ncc(Cc2csc(CCO)c2C)c(N)n1 [3-Deazathiamine] | 4.23 |
| Cc1ncc(Cc2csc(CO)c2C)c(N)n1 [(4-((4-Amino-2-methylpyrimidin-5-yl)methyl)-3-methylthiophen-2-yl)methanol (7)] | 5.21 |
| Cc1ncc(Cc2cccc(CO)c2)c(N)n1 [(3-((4-Amino-2-methylpyrimidin-5-yl)methyl)phenyl)methanol (6)] | 528 |
| Cc1ncc(Cc2csc(C=O)c2C)c(N)n1 [4-((4-Amino-2-methylpyrimidin-5-yl)methyl)-3-methylthiophene-2-carbaldehyde (9)] | 7.44 |
| Cc1ncc(Cc2cccc(CCO)c2)c(N)n1 [2-(3-((4-Amino-2-methylpyrimidin-5-yl)methyl)phenyl)ethanol (8)] | 266 |
